Source: patent US7098219B2, “Inhibitors of cellular efflux pumps of microbes” (Wockhart Limited, priority 2000, dated 2006)

Experiments:
[1] = tested on: Mef Efflux Pump of Streptococcus pneumoniae 3514 and Streptococcus pyogenes 26-00; experiment: Two plate diffusion assay for macrolide (Mef) efflux pump inhibitors, azithromycin plate versus control plate; format: cell-based; details: zone of inhibition in antibiotic plate (method: azithromycin 0.5 mcg/ml; footnote: levofloxacin) minus water control plate; strain not given
[2] = tested on: Staphylococcus aureus 1199 B NorA+; format: cell-based; details: combination with ciprofloxacin, broth microdilution checkerboard, 35° C. 20 hours; FIC index ≦0.5 synergistic, 0.5–2.0 additive, >2.0 antagonistic
Text: Testing method for inhibition of the efflux pump of Staphylococcus aureus 1199B NorA^+
[…]. Victor Lorian, Md., Fourth edition 1996, pp 333–338).
In short, the assay involves broth microdilution method performed as recommended by the National Committee for Clinical Laboratory Standards (NCCLS) 1997 (Methods for Dilution of Antimicrobial Susceptibility Tests for Bacteria that Grow Aerobically, Fourth edition; Approved Standard, NCCLS document M7-A4, vol. 17, No. 2). The test organism used for the assay is Staphylococcus aureus 1199 B NorA^+.
[…]. Stock solutions of the efflux pump inhibitors tested are prepared in dimethyl sulfoxide (DMSO) at a final concentration of 5 mg/ml. Stock solutions are further diluted in Mueller Hinton Broth as per the need of the assay. Ciprofloxacin is dissolved in water.
The checkerboard assay is performed in microtiter plates. […] The efflux pump inhibitor is diluted in the Y-axis, each row containing an equal concentration of efflux pump inhibitor. The result of these manipulations is that each well of the microtiter plate contains a unique combination of concentrations of the two agents. Bacterial inoculum is added at 5×10^5 CFU/ml. Microtiter plates are incubated at 35° C. for 20 hours. Reading is done by visibly noting turbidity and confirmed using a microtiter plate reader (Molecular Devices). The FIC index is calculated as
(A) is the concentration of the experimental efflux pump inhibitor in the well that is the lowest inhibitory concentration in the Y-axis. (MICA) is the MIC of Staphylococcus aureus to experimental efflux pump inhibitor alone. FICA is the fractional inhibitory concentration of an experimental efflux pump inhibitor. […] (Antimicrobial Combination In Antibiotics in Laboratory Medicine, Ed. Victor Lorian, Md., Fourth edition 1996, pp 333–338).

CNC1CCN(c2cc3c(c(C)c2F)c(=O)c(C(=O)O)cn3-c2ccc(F)cc2F)CC1 [Example 19 (Mef), 1-(2′,4′-Difluorophenyl)-6-fluoro-5-methyl-1,4-dihydro-7-(4′-methylaminopiperidin-1′-yl)-4-oxo-quinoline-3-carboxylic acid]
Difference in Zone diameter Z1 (mm) [1]: 8 mm

O=C(O)c1cn(C2CC2)c2nc(N3CC4C(C3)C4NCc3ccccc3)c(F)cc2c1=O (centres unmarked) [Example 21 (Mef), 1-Cyclopropyl-6-fluoro-1,4-dihydro-7-{(1∝,5∝,6∝)-6-amino-N-benzyl-3-azabicyclo[3.1.0]hex-6-yl}-4-oxo-1,8-naphthyridine-3-carboxylic acid]
Difference in Zone diameter Z1 (mm) [1]: 17 mm

Cc1c(F)c(F)c(F)c2c1c(=O)c(C(=O)O)cn2C1CC1 [Example 29 (Mef), 1-cyclopropyl-6,7,8-trifluoro-5-methyl-1,4-dihydro-4-oxo-quinoline-3-carboxylic acid]
Difference in Zone diameter Z1 (mm) [1]: 10 mm

COc1c(N2CCC(NC(=O)[C@H](C)N)C(C)(C)C2)c(F)cc2c(=O)c(C(=O)O)cn(C3CC3)c12.Cl (some centres unmarked) [Example 8 (Mef), 1-Cyclopropyl-6-fluoro-8-methoxy-1,4-dihydro-7-(4′-(L)-alaninylamino-3′,3′-dimethylpiperidin-1-yl)-4-oxo-quinoline-3-carboxylic acid hydrochloride]
Difference in Zone diameter Z1 (mm) [1]: 10 mm

COc1c(N2CCC(NC(=O)[C@@H](N)CC(=O)O)C(C)(C)C2)c(F)cc2c(=O)c(C(=O)O)cn(C3CC3)c12.Cl (some centres unmarked) [Example 11 (Mef), 1-Cyclopropyl-6-fluoro-8-methoxy-1,4-dihydro-7-(4′-(L)-aspartylamino-3′,3′-dimethylpiperidin-1-yl}-4-oxo-quinoline-3-carboxylic acid hydrochloride]
Difference in Zone diameter Z1 (mm) [1]: 6 mm

Cc1c(F)c(N2CCC(N)CC2)cc2c1c(=O)c(C(=O)O)cn2-c1ccc(F)cc1F [Example 18 (Mef), 1-(2′,4′-Difluorophenyl)-6-fluoro-5-methyl-1,4-dihydro-7-(4′-aminopiperidin-1′-yl)-4-oxo-quinoline-3-carboxylic acid]
Difference in Zone diameter Z1 (mm) [1]: 8 mm

1-Cyclopropyl-6-fluoro-8-methoxy-1,4-dihydro-7-{-4′-(t-butoxycarbonyl (L)-Ala-Ala)amino 3′,3′-dimethylpiperidin-1-yl}-4-oxo-quinoline-3-carboxylic acid [Example 34 (Mef)]
Difference in Zone diameter Z1 (mm) [1]: 8 mm

CCNC1C(C)CN(c2c(F)c(N)c3c(=O)c(C(=O)O)cn(C4CC4)c3c2OC)CC1C (centres unmarked) [Example 35 (Mef), 5-Amino-1-cyclopropyl-6-fluoro-8-methoxy-1,4-dihydro-7-{4′-ethylamino-3′,5′-dimethylpiperidin-1-yl}-4-oxo-quinoline-3-carboxylic acid]
Difference in Zone diameter Z1 (mm) [1]: 13 mm

COc1c(N2CCC(N)C(C)(C)C2)c(F)cc2c(=O)c(C(=O)OC(C)C)cn(C3CC3)c12 (centres unmarked) [Example 3 (Mef), i-Propyl 1-cyclopropyl-6-fluoro-8-methoxy-1,4-dihydro-7-(4′-amino-3′,3′-dimethyl-piperidin-1-yl)-4-oxo-quinoline-3-carboxylate]
Difference in Zone diameter Z1 (mm) [1]: 11 mm

COc1c(N2CCC(NC(=O)OC(C)(C)C)C(C)(C)C2)c(F)cc2c(=O)c(C(=O)OCc3ccccc3)cn(C3CC3)c12 (centres unmarked) [Example 6 (Mef)]
Difference in Zone diameter Z1 (mm) [1]: 13 mm

Nc1c(F)c(C2(N)C3CN(Cc4ccccc4)CC32)c(F)c2c1c(=O)c(C(=O)O)cn2C1CC1 (centres unmarked) [Example 15 (Mef), 5-Amino-1-cyclopropyl-6,8-difluoro-1,4-dihydro-7-{(1∝,5∝,6∝)-6-amino-N-benzyl-3-azabicyclo[3.1.0]hex-6-yl}-4-oxo-quinoline-3-carboxylic acid]
Difference in Zone diameter Z1 (mm) [1]: 14 mm

CCNC1CCN(c2c(F)cc3c(=O)c(C(=O)O)cn(CC)c3c2F)CC1 [Example 12 (Mef), 1-Ethyl-6,8-difluoro-1,4-dihydro-7-(4′-ethylaminouiperidin-1′-yl)-4-oxo-quinoline-3-carboxylic acid]
Difference in Zone diameter Z1 (mm) [1]: 18 mm

CCNC1CCN(c2c(F)c(C)c3c(=O)c(C(=O)O)cn(C4CC4)c3c2F)CC1(C)C (centres unmarked) [Example 28 (Mef), 1-Cyclopropyl-6,8-difluoro-5-methyl-1,4-dihydro-7-(3′,3′-dimethyl-4′-ethylaminopiperidin-1-yl)-4-oxo-quinoline-3-carboxylic acid]
Difference in Zone diameter Z1 (mm) [1]: 10 mm

COc1c(N2CCC(NC(=O)[C@@H](N)C(C)C)C(C)(C)C2)c(F)cc2c(=O)c(C(=O)O)cn(C3CC3)c12.Cl (stereo partly drawn) [Example 10 (Mef), 1-Cyclopropyl-6-fluoro-8-methoxy-1,4-dihydro-7-(3′,3′-dimethyl-4′-L-valinylaminopiperidin-1-yl}-4-oxo-quinoline-3-carboxylic acid hydrochloride]
Difference in Zone diameter Z1 (mm) [1]: 8 mm

NC1CCN(c2nc3c(cc2F)c(=O)c(C(=O)O)cn3-c2ccc(F)cc2F)C1 (centres unmarked) [Example 22 (Mef)]
Difference in Zone diameter Z1 (mm) [1]: 8 mm

NC1CCN(c2nc3c(cc2F)c(=O)c(C(=O)O)cn3C2CC2)C1 (centres unmarked) [Example 20 (Mef)]
Difference in Zone diameter Z1 (mm) [1]: 10 mm

CCOC(=O)COC(=O)c1cn(C2CC2)c2c(OC)c(N3CCC(N)C(C)(C)C3)c(F)cc2c1=O (centres unmarked) [Example 5 (Mef), Ethoxycarbony methyl 1-Cyclopropyl-6-fluoro-8-methoxy-1,4-dihydro-7-(4′-amino-3′,3′-dimethylpiperidin-1-yl)-4-oxo-quinoline-3-carboxylate]
Difference in Zone diameter Z1 (mm) [1]: 13 mm

CC1CCc2c(N3CC[C@@H](O)[C@H](C)C3)ccc3c(=O)c(C(=O)O)cn1c23 (mixture of isomers) [Example 41 (Mef), (RS)-(±)-6,7-dihydro-8-(trans-4′-hydroxy-3′-methylpiperidin-1-yl)-5-methyl-1-oxo-1H,5H-benzo[i,j]quinolizine-2-carboxylic acid]
Difference in Zone diameter Z1 (mm) [1]: 10 mm

CC1CN(c2c(F)c(N)c3c(=O)c(C(=O)O)cn(C4CC4)c3c2F)CCC1N (centres unmarked) [Example 13 (Mef), 5-Amino-1-cyclopropyl-6,8-difluoro-1,4-dihydro-7-(4′-amino-3′-methylpiperidin-1-yl)-4-oxo-quinoline-3-carboxylic acid]
Difference in Zone diameter Z1 (mm) [1]: 20 mm

N-3-azabycyclo{7-(1-(2,4-difluorophenyl)-6-fluoro-1,4-dihydro-4-oxo-1,8-naphthyridine-3-carboxylic acid)}-[1∝,5∝,6∝]-N-6-amino-{7-1-(2,4-difluorophenyl)-6-fluoro-1,4-dihydro-4-oxo-1,8-naphthyridine-3-carboxylic acid)}-3.1.0]hexane [Bis compound 9]
FIC INDEX [2]: 0.314

COc1c(N2CCC(O)C(CC(C)C)C2)c(F)cc2c(=O)c(C(=O)O)cn(C3CC3)c12 (centres unmarked) [Example 20 (NorA), 1-Cyclopropyl-6-fluoro-8-methoxy-1,4-dihydro-7-(4′-hydroxy-3′-isobutylpiperidin-1-yl)-4-oxo-quinoline-3-carboxylic acid]
FIC INDEX [2]: 0.248

O=C(O)c1cn(-c2ccc(F)cc2F)c2nc(NC3CCN(c4cc5c(cc4F)c(=O)c(C(=O)O)cn5C4CC4)C3)c(F)cc2c1=O (centres unmarked) [Bis compound 1, N-1-{7-(1-cyclopropyl-6-fluoro-1,4-dihydro-4-oxo-quinoline-3-carboxylic acid)}-N-3-amino-{7-(1-(2,4-difluorophenyl)-6-fluoro-1,4-dihydro-4-oxo-1,8-naphthyridine-3-carboxylic acid)}-pyrrolidine]
FIC INDEX [2]: 0.253

CCNC1CCN(c2cc3c(cc2F)c(=O)c(C(=O)O)cn3-c2ccc(F)cc2)CC1 [Example 44 (NorA)]
FIC INDEX [2]: 0.189

CCOC(=O)COC(=O)c1cn2c3c(c(N4CCC(O)CC4)c(F)cc3c1=O)CC[C@H]2C [Example 57 (NorA), Ethoxy carbonylmethyl (R)-(+)-9-fluoro-6,7-dihydro-8-(4′-hydroxypiperidin-1-yl)-5-methyl-1-oxo-1H,5H-benzo[i,j]quinolizine-2-carboyxlate]
FIC INDEX [2]: 0.400

O=C(O)c1cn(-c2ccc(F)cc2F)c2nc(N3CCN(c4cc5c(cc4F)c(=O)c(C(=O)O)cn5C4CC4)CC3)c(F)cc2c1=O [Bis compound 8, N-1-{7-(1-(2,4-difluorophenyl)-6-fluoro-1,4-dihydro-4-oxo-1,8-naphthyridine-3-carboxylic acid)}-N-4-{7-(1-cyclopropyl-6-fluoro-1,4-dihydro-4-oxo-quinoline-3-carboxylic acid)}-piperazine]
FIC INDEX [2]: 0.192

5-Amino-1-ethyl-6,8-difluoro-1,4-dihydro-7-[(1∝,5∝,6∝)-6′-(N-t-butoxycarbonylamino)-3-azabicyclo[3.1.0]-hex-3-yl}-4-oxo-quinoline-3-carboxylic acid [Example 8 (NorA)]
FIC INDEX [2]: 0.314
